From PMC4014597 (PLoS ONE, 2014)

Legend:
human DNMT1 (hDNMT1) = target: T1, human DNMT1 (hDNMT1) (Homo sapiens, UniProt P26358); test: DNMT1 assay (radioactive Flashplate methylation assay); assay type: biochemical; details: 100 µM compound; for inhibition at 100 µM: read-out: % inhibition ± SD hDNMT1
T1 construct: His; made in house
Description: His-DNMT1 (182 kDa, human) was cloned, expressed and purified as described by Lee et al.. The DNMT1 assay was performed according to Gros et al.. Briefly, the reaction was started by addition of 90 nM of DNMT1 on a mix containing the tested compound (up to 1% DMSO), 1 µM of a AdoMet/[methyl-^3H]-AdoMet mix in a ratio of 3-to-1 (isotopic dilution 1*:3) and 0.3 µM of biotinylated DNA duplex in 10 µL final volume. The reaction was incubated at 37°C for 2 h in reaction buffer (20 mM HEPES pH 7.2, 1 mM EDTA, 50 mM KCl, 25 µg/mL BSA). 8 µL are then transferred into a streptavidin-coated Flashplate PLUS (PerkinElmer) containing 190 µL of 20 µM AdoHcy (Sigma-Aldrich) in 50 mM Tris-HCl pH 7.4. The Flashplate was agitated at room temperature for 1 h, washed three times with 200 µL of 0.05% Tween-20 in 50 mM Tris-HCl pH 7.4 and read in 200 µL of 50 mM Tris-HCl pH 7.4 on TopCount NXT (PerkinElmer). Percentages of inhibition were calculated with the same formula as in DNMT3A assay.

[1] = target: T2, C-terminal catalytic domain of human DNMT3A (hDNMT3A) (Homo sapiens, UniProt Q9Y6K1); test: DNMT3A assay (restriction-based fluorescence assay); assay type: biochemical; details: for inhibition at 100 µM: 100 µM compound; for inhibition at 100 µM / inhibition at 10 µM / inhibition at 32 µM / inhibition at 3.2 µM: read-out: % inhibition ± SD hDNMT3A
T2 construct: catalytic domain of human DNMT3A (residues 623–908), produced as described; made in house
Source text: DNMT3A enzyme inhibition was adapted from the restriction-based fluorescence assay protocol described in Ceccaldi et al.. Briefly, a 5'-labelled biotin oligonucleotide is hybridized to its complementary strand labelled with 6-carboxyfluorescein at the 3′-end into a 384 well microplate (black Optiplates; Perkin Elmer) pre-coated with avidin. The duplex contains a unique CpG site overlapping with a restriction site of a methylation sensitive restriction enzyme. The C-terminal catalytic domain of human DNMT3A (residues 623–908), produced as described, was added in each well (200 ng/well) and mixed with the chemical compounds at desired concentrations and freshly prepared AdoMet (20 µM final concentration) to start the reaction in a total volume of 50 µL. After 1 hour incubation at 37°C each well were washed three times with PBS, 0.05% Tween-20, 500 mM NaCl and three more times with PBST. Specific fluorescent signals were detected with the methylation-sensitive restriction enzyme HpyCH4IV (NEB) as described and measured on a Perkin Elmer Envision detector. The percentage of inhibition is reported. The formula used to calculate the percentage of inhibition is [(X-Y)/X]×100, where X is the signal determined in the absence of the inhibitor and Y is the signal obtained in the presence of the inhibitor. […] The non-linear regression fittings with sigmoidal dose-response (variable slope) were performed with GraphPad Prism 4.03 (GraphPad Software).

[2] = target: T3, human G9a-like protein (GLP) (Homo sapiens, UniProt Q9H9B1); test: GLP assay (histone methylation inhibition); assay type: biochemical; details: 8 μM inhibitor; read-out: Percent of GLP inhibition
T3 construct: catalytic SET domain (residues 734-1235; pXC758) were purified as described; made in house
T3 sequence (Q9H9B1 765-1266): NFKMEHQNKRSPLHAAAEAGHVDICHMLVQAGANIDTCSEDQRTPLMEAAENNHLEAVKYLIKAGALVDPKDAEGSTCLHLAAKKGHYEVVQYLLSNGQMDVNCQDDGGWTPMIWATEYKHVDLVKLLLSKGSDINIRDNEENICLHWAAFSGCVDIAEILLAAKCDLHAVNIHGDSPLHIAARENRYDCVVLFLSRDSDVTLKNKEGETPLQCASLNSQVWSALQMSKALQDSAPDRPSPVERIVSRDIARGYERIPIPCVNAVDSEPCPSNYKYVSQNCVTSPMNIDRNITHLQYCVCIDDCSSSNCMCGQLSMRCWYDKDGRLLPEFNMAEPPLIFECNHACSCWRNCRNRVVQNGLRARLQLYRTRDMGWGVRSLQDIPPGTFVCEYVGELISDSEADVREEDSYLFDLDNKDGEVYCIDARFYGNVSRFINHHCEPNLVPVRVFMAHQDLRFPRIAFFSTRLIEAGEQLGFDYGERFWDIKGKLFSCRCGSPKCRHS
Description: GLP Assay. Recombinant human G9a-like protein (GLP) C-terminal fragment containing both the ankyrin repeats and catalytic SET domain (residues 734-1235; pXC758) were purified as described. For histone methylation inhibition, the assay was performed in 20 μL reaction containing 4.6 mM [methyl-^3H]-AdoMet, 50 μg/mL histone from calf thymus (SIGMA), 10 μg/mL (0.17 μM) GLP, 100 mM KCl, 5 mM (DTT) and 50 mM Tris-HCl pH 8.5. GLP was pre-incubated with AdoMet and 8 µM inhibitors for 5 min at 30 °C before the addition of the histone substrate. After incubation (5 min), the reaction was terminated by the addition of 20% trichloroacetic acid (TCA, Fisher Scientific). The reaction mixture was spotted on GF/A paper circles (Whatman), washed three times with 3 mL of 10% TCA and once with 3 mL of ethanol. The dried circles were subjected to liquid-scintillation counting with Cytoscint scintillant.

[3] = test system: CMV-luc construct in KG-1 cells; test: CMV-luc assay (luciferase re-expression from methylated CMV promoter); assay type: cell-based; details: 24 h
U-937 cells = test system: U-937 cells; set-up: method as in PMID 24387159; details: 48 h; read-out: IC50 (mean ± SD) cell viability U-937; cited from earlier work
RAJI cells = test system: RAJI cells; set-up: method as in PMID 24387159; details: 48 h; read-out: IC50 (mean ± SD) cell viability RAJI; cited from earlier work
Human G9a = target: T4, Human G9a (Homo sapiens, UniProt Q96KQ7); test: G9a assay (3H-AdoMet filter-binding); assay type: biochemical; details: 10-dose IC50 mode, 2-fold serial dilution starting at 400 µM
T4 sequence (Q96KQ7 786-1210 limits assumed): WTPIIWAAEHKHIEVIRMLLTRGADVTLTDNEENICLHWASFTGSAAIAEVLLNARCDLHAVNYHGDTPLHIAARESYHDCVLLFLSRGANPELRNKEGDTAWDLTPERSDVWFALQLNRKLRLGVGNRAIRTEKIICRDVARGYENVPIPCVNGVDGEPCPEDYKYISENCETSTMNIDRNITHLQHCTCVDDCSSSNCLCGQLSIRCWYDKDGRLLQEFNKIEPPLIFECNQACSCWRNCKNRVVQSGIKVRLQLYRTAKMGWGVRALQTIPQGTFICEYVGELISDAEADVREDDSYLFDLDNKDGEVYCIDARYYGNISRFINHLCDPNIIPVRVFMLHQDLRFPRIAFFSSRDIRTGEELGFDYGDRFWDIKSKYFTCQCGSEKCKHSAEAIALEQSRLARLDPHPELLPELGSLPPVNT
Description: The reaction buffer was 50 mM Tris-HCl, pH 8.5, 50 mM NaCl, 5 mM MgCl2, 1 mM dithiothreitol (DTT), 1 mM PMSF, and 1% DMSO. Standard substrate concentrations were 5 µM biotinylated H3 (1–21) peptide (AnaSpec) substrate and 0.1 mM AdoMet. For control compound IC50 determinations, the test compounds were diluted in DMSO and then added to the enzyme/substrate mixture in nanoliter amounts by using an acoustic technology (Echo 500; Lab-cyte). The reaction was initiated by the addition of ^3H-AdoMet, and incubated at 30°C for 1 h. The reaction was detected by a filter-binding method. Data analysis was performed using Graph Pad Prism software for curve fits, and GraFit (Erithacus) for global fit of kinetic studies.

T1 sequence (P26358 whole entry): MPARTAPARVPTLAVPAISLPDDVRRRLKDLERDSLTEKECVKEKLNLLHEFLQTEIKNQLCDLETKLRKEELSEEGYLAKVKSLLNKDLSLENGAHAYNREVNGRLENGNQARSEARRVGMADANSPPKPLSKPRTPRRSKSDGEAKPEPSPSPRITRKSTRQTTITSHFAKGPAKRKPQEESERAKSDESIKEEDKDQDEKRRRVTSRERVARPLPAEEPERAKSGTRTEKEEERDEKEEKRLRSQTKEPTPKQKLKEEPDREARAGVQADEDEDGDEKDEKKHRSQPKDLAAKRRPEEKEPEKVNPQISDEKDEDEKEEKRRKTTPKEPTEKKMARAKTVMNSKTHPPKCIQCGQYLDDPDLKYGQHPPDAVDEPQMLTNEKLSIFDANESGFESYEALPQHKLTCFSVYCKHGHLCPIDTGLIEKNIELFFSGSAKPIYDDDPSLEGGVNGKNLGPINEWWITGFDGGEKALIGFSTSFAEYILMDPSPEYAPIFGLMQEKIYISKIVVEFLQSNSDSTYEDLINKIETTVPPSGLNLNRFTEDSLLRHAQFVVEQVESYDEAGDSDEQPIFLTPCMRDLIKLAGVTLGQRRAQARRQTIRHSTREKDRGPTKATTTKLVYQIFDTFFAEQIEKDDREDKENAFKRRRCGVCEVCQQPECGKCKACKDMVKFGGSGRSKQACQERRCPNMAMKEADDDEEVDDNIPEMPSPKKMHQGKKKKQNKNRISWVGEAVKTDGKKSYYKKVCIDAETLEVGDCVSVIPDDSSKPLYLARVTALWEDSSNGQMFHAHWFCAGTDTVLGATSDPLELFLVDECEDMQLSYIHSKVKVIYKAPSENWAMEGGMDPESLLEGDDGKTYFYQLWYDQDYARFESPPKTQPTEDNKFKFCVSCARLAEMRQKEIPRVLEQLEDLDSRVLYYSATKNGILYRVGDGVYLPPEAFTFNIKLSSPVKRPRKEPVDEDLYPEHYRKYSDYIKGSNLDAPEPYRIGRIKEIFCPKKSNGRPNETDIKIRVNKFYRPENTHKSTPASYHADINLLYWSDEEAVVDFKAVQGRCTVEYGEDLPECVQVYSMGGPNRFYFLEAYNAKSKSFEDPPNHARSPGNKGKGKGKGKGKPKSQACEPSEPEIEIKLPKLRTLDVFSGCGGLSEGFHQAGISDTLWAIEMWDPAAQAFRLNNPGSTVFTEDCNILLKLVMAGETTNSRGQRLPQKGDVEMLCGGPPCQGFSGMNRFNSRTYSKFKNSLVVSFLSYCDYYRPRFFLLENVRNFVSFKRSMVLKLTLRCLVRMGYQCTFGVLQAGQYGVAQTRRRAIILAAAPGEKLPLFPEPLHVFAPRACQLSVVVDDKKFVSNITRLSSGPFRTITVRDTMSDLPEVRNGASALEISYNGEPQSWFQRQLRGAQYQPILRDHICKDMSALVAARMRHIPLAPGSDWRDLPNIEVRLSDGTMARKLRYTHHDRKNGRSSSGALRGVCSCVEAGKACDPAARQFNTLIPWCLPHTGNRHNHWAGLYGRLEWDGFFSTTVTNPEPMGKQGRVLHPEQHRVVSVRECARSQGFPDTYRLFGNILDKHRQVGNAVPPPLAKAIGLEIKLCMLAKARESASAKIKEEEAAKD
T2 sequence (Q9Y6K1 627-912): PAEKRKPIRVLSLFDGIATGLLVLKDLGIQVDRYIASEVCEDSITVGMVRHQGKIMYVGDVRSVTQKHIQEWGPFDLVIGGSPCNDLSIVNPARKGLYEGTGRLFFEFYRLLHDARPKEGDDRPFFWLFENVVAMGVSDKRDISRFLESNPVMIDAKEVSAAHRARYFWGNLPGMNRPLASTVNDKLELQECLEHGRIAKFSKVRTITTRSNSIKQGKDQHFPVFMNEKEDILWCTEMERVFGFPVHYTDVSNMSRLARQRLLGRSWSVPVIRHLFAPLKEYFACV

Row | SMILES | inhibition at 100 µM (human DNMT1 (hDNMT1)) | inhibition at 100 µM [1] | inhibition at 10 µM ([1]; 10 µM compound) | inhibition at 32 µM ([1]; 32 µM compound) | melting point | further results
1 | COc1cc2nc(N3CCCN(C)CC3)nc(NC3CCN(Cc4ccccc4)CC3)c2cc1OC [Compound 1, BIX-01294, reference compound] | 30% | 12 ± 3% |  |  |  | % inhibition ± SD hDNMT1 (human DNMT1 (hDNMT1); 100 µM): 35±8%; inhibition at 8 µM [2]: 91.7%
2 | CN1CCN(c2nc(NC3CCN(Cc4ccccc4)CC3)c3ccccc3n2)CC1 [Compound 5] | 0% | 30 ± 8% | 0% | 14 ± 3% |  | 
3 | c1ccc(CN2CCC(Nc3nc(N4CCCCC4)nc4ccccc34)CC2)cc1 [Compound 6] | 0% | 57 ± 8% | 14 ± 6% | 33 ± 6% |  | inhibition at 3.2 µM ([1]; 3.2 µM compound): 11 ± 5%
4 | c1ccc(CN2CCC(Nc3nc(N4CCCCCC4)nc4ccccc34)CC2)cc1 [Compound 7] | 0% | 57 ± 3% | 16 ± 2% | 32 ± 3% | 119 to 122 °C | inhibition at 3.2 µM ([1]; 3.2 µM compound): 7 ± 2%
5 | CC1CCN(c2nc(NC3CCN(Cc4ccccc4)CC3)c3ccccc3n2)CC1 [Compound 8] | 0% | 53 ± 3% | 14 ± 2% | 35 ± 5% | 106 to 108 °C | inhibition at 3.2 µM ([1]; 3.2 µM compound): 7 ± 1%
6 | CC1CCCCN1c1nc(NC2CCN(Cc3ccccc3)CC2)c2ccccc2n1 (centres unmarked) [Compound 9] | 0% | 47 ± 5% | 5 ± 2% | 14 ± 7% | 128 to 129 °C | inhibition at 3.2 µM ([1]; 3.2 µM compound): 1 ± 1%
7 | c1ccc(CN2CCC(Nc3nc(N4CCSCC4)nc4ccccc34)CC2)cc1 [Compound 11] | 0% | 42 ± 3% | 8 ± 2% |  | 155 to 157 °C | 
8 | c1ccc(CN2CCC(Nc3nc(N4CCOCC4)nc4ccccc34)CC2)cc1 [Compound 12, N-(1-benzylpiperidin-4-yl)-2-morpholinoquinazolin-4-amine] | 0% | 7% |  |  |  | 
9 | O=C(c1ccccc1)N1CCN(c2nc(NC3CCN(Cc4ccccc4)CC3)c3ccccc3n2)CC1 [Compound 15] | 0% | 23 ± 2% |  |  | 213 to 215 °C | 
10 | OCCNc1nc(NC2CCN(Cc3ccccc3)CC2)c2ccccc2n1 [Compound 16] | 0% | 37 ± 4% | 8 ± 3% |  | 116 to 118 °C | 
11 | CN(C)CCNc1nc(NC2CCN(Cc3ccccc3)CC2)c2ccccc2n1 [Compound 17] | 0% | 10% |  |  | 120 to 122 °C | 
12 | CN(C)CCCNc1nc(NC2CCN(Cc3ccccc3)CC2)c2ccccc2n1 [Compound 18] | 0% | 8 ± 1% |  |  |  | 
13 | Cc1cc(Nc2ccc(NC(=O)c3ccc(Nc4ccnc5ccccc45)cc3)cc2)nc(N)n1 [SGI-1027, reference compound] |  |  |  |  |  | % inhibition ± SD hDNMT1 (human DNMT1 (hDNMT1)): 100±0.1%; % inhibition ± SD hDNMT3A ([1]; 3.2 µM compound): 80±4%; % inhibition ± SD hDNMT3A ([1]; 10 µM compound): 72±6%; % inhibition ± SD hDNMT3A ([1]; 32 µM compound): 75±7%; fold-induction of the luciferase signal (CMV-luc) ([3]; 5 µM): 17 fold; fold-induction of the luciferase signal (CMV-luc) ([3]; 10 µM): 10 fold; fold-induction of the luciferase signal (CMV-luc) ([3]; 25 µM): no induction; IC50 (U-937 cells): 1.7 ± 1.1 µM; IC50 (RAJI cells): 9.1 ± 0.8 µM
14 | CN1C(=O)[C@@]23C[C@]4([C@]56C[C@@]78SS[C@@](CO)(C(=O)N7[C@H]5Nc5ccccc56)N(C)C8=O)c5ccccc5N[C@@H]4N2C(=O)[C@]1(CO)SS3 [chaetocin, reference compound] |  |  |  |  |  | IC50 (Human G9a): 8 µM
